{"source": "paper PMC11022729", "about": "(Advanced Science, 2024)", "key": {"[1]": {"target": "T1, human D3 receptor (Homo sapiens, UniProt P35462)", "T1 construct": "expressed in transfected cells; host or cells: CHO", "T1 sequence (P35462 whole entry)": "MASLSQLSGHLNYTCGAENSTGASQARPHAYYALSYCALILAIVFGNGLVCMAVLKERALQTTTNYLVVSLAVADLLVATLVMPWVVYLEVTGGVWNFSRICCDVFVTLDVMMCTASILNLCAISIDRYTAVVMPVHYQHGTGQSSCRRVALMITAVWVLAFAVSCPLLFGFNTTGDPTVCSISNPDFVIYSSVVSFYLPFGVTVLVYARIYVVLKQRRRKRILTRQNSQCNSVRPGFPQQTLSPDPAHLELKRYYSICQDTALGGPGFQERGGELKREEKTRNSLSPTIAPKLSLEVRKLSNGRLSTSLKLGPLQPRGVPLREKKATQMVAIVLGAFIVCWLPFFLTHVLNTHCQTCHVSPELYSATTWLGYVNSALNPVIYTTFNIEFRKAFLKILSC", "assay": "[3H]-spiperone competition binding assay, D3", "conditions": "for Ki: mean [CI 95%]", "description": "CHO cells stably expressing human dopamine D2short (D2R) and D3 receptor (D3R) were washed and harvested using PBS. […] The cell membrane homogenate was centrifuged (20 000 × g, 20 min, 4 °C), and the resulting cell pellet was resuspended in the binding buffer. Crude membrane extracts were kept at −80 °C until use. Before starting the experiments, cell membranes were thawed, homogenized by sonication (3 × 10 s), and stored in an ice‐cold binding buffer. […] Assays were performed at least in triplicate with appropriate concentrations ranging from 0.01 nM to 100 µM of the test compound. Non‐specific binding was determined using 10 µM haloperidol. By filtering through GF/B filters pretreated with 0.3% (m/v) polyethyleneimine, the bound radioligand was separated from free radioligand using a cell harvester. Radioactivity was measured using liquid scintillation counting. Data were evaluated using the GraphPad Prism 9 software (San Diego, CA, USA) with a nonlinear regression fit."}, "[2]": {"test_system": "Slack−/− mice", "assay": "Chloroquine-induced itch behavior, Slack knockout mice", "type": "in vivo, mouse", "description": "We then assessed the antipruritic efficacy of compound 6 in a model of histamine‐independent itching induced by the antimalarial drug chloroquine.\nThree to four days before the day of the experiment, the fur on the dorsolateral aspect of the neck was shaved under brief isoflurane anesthesia. On the testing day, the mice were habituated to a Plexiglas cylinder (30 cm in diameter) for 30 min. Compound 6 hydrochloride or vehicle were i.p. or p.o. administered, and 15 min later, the pruritogens chloroquine (200 µg), SLIGRL (100 µg), β‐alanine (100 µg), or histamine (800 µg), all dissolved in 0.9% saline (20 µL), were injected subcutaneously into the nape of the neck.^[ [29] ^] Number of scratching bouts directed toward the nape of the neck was assessed over 30 min by videotaping. In experiments with the Slack inhibitor, compound 31 (ref. [27]; 30 mg kg^−1 in 0.9% NaCl with 2% DMSO and 10% Kolliphor) was i.p. administered 5 min prior to compound 6."}, "[3]": {"target": "T2, serotonin 5-HT2A receptor (Homo sapiens, UniProt P28223)", "T2 construct": "purchased Eurofins Cerep P270", "T2 sequence (P28223 whole entry)": "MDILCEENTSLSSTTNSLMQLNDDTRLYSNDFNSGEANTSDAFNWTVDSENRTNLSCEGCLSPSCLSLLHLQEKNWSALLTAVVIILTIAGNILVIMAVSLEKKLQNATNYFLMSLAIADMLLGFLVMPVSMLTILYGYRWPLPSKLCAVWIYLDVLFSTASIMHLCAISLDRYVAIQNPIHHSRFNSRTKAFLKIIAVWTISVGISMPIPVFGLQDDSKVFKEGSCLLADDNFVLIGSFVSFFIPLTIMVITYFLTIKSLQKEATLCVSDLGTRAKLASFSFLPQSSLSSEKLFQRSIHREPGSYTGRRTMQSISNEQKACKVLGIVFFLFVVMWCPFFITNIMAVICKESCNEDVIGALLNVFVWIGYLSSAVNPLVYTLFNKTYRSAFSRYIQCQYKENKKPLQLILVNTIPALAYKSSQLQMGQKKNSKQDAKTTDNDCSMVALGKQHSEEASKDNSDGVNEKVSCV", "assay": "SafetyScreen44 panel", "type": "binding", "description": "(§1) Measurements were performed in duplicate.\n(§2) channel, which were obtainedfrom ratspecimens).\n(§3) in brackets) specific for each target."}, "[4]": {"target": "T3, norepinephrine transporter (NET) (Homo sapiens, UniProt P23975)", "T3 construct": "purchased Eurofins Cerep P270", "T3 sequence (P23975 whole entry)": "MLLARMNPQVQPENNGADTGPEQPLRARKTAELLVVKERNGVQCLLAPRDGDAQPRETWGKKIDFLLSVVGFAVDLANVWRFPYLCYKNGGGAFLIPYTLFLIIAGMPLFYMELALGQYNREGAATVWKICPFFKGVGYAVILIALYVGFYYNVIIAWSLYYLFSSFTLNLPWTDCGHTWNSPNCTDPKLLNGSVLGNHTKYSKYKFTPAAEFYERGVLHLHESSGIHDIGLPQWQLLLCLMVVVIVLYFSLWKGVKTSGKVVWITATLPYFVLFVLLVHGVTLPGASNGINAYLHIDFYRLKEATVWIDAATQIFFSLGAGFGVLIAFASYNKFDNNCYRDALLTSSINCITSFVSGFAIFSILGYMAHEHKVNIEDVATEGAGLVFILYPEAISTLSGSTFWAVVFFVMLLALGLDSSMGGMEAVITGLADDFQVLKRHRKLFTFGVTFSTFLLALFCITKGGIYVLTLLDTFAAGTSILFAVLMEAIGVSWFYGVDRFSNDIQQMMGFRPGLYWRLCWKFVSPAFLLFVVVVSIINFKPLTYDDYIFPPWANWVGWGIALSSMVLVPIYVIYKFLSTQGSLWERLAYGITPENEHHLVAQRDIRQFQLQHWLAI", "assay": "SafetyScreen44 panel", "type": "binding", "description": "as §1, §2, §3"}, "[5]": {"target": "T4, serotonin 5-HT2B receptor (Homo sapiens, UniProt P41595)", "T4 construct": "purchased Eurofins Cerep P270", "T4 sequence (P41595 whole entry)": "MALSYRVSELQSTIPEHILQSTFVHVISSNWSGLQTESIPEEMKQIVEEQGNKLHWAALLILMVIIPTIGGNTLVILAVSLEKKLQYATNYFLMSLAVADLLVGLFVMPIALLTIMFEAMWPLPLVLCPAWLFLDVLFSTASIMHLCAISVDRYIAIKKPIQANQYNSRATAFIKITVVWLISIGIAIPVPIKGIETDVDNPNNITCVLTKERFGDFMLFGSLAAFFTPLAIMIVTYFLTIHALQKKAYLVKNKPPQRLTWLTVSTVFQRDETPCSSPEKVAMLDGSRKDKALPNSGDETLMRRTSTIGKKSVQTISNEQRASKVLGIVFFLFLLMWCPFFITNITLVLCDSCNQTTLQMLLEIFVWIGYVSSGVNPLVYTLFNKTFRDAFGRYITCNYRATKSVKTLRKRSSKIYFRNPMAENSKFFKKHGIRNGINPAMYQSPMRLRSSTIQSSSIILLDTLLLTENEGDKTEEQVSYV", "assay": "SafetyScreen44 panel", "type": "binding", "description": "as §1, §2, §3"}, "[6]": {"target": "T5, serotonin transporter (SET) (Homo sapiens, UniProt P31645)", "T5 construct": "purchased Eurofins Cerep P270", "T5 sequence (P31645 whole entry)": "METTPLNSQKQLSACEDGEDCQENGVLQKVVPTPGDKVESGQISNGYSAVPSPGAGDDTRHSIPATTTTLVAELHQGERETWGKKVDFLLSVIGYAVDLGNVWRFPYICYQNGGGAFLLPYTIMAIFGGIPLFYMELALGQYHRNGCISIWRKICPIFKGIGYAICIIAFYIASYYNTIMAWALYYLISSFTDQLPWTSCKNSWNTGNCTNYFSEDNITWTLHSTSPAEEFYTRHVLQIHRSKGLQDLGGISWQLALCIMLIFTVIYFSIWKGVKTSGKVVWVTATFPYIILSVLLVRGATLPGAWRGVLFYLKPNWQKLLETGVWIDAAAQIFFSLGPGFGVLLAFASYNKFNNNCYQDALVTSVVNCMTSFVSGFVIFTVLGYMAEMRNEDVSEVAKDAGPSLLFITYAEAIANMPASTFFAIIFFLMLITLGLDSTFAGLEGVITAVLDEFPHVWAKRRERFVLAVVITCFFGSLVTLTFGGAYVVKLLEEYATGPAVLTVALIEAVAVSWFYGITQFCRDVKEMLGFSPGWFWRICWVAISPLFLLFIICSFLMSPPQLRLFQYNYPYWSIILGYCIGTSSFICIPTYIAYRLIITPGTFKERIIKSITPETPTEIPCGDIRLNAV", "assay": "SafetyScreen44 panel", "type": "binding", "description": "as §1, §2, §3"}, "[7]": {"target": "T6, dopamine D2S receptor (Homo sapiens, UniProt P14416)", "T6 construct": "purchased Eurofins Cerep P270", "T6 sequence (P14416 1-414 isoform P14416-2)": "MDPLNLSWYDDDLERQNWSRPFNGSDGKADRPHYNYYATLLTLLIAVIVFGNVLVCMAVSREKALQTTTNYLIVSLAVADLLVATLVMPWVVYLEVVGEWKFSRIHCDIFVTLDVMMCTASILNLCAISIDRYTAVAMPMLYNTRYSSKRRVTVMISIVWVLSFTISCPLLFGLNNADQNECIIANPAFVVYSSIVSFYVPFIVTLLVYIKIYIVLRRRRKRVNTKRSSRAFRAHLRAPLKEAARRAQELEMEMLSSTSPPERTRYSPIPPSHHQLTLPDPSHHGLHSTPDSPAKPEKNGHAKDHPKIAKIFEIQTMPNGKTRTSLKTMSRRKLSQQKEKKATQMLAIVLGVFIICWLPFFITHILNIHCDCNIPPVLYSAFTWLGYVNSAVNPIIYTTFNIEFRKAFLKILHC", "assay": "SafetyScreen44 panel", "type": "binding", "description": "as §1, §2, §3"}, "[8]": {"target": "T7, adrenergic α1A receptor (Homo sapiens, UniProt P35348)", "T7 construct": "purchased Eurofins Cerep P270", "T7 sequence (P35348 whole entry)": "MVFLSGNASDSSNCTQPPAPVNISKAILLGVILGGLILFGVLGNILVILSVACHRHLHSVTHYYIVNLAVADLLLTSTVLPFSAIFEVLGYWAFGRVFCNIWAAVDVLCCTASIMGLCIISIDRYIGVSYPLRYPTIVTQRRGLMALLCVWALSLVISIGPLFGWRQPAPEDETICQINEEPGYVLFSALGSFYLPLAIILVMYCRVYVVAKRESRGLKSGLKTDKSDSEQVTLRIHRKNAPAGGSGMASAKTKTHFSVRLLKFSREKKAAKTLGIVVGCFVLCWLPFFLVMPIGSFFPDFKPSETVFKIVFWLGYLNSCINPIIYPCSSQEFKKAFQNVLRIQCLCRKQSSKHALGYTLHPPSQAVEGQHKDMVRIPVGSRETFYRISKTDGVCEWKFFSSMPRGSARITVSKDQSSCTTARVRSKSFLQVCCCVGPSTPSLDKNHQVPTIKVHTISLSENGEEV", "assay": "SafetyScreen44 panel", "type": "binding", "description": "as §1, §2, §3"}}}
{"compound": "O=C(O)COCCN1CCN(C2=Nc3ccccc3Oc3ccc(Cl)cc32)CC1", "note": "[Compound 6]", "values": [{"measurement": "fold lower affinity against D3 as compared to loxapine", "setting": "[1]", "value": "≈ 31 fold"}, {"measurement": "Ki", "setting": "[1]", "value": 3520, "unit": "nM"}, {"measurement": "chloroquine-induced scratching", "setting": "[2]; Slack−/− mice, i.p.", "value": "did not significantly alter"}, {"measurement": "binding inhibition", "setting": "[3]; 10 µM", "value": "substantial binding"}, {"measurement": "binding inhibition", "setting": "[4]; 10 µM", "value": "substantial binding"}, {"measurement": "binding inhibition", "setting": "[5]; 10 µM", "value": "substantial binding"}, {"measurement": "binding inhibition", "setting": "[6]; 10 µM", "value": "substantial binding"}, {"measurement": "binding inhibition", "setting": "[7]; 10 µM", "value": "substantial binding"}, {"measurement": "binding inhibition", "setting": "[8]; 10 µM", "value": "substantial binding"}]}
{"compound": "CN1CCN(C2=Nc3ccccc3Oc3ccc(Cl)cc32)CC1", "note": "[Loxapine, reference compound]", "values": [{"measurement": "Ki", "setting": "[1]", "value": 112, "unit": "nM"}, {"measurement": "chloroquine-induced scratching behavior", "setting": "[2]; Slack knockout mice, systemic low dose, preliminary experiments", "value": "did not affect"}, {"measurement": "inhibition at 10 µM", "setting": "[3]; read-out: binding inhibition", "value": "> 50", "unit": "%"}, {"measurement": "inhibition at 10 µM", "setting": "[4]; read-out: binding inhibition", "value": "> 50", "unit": "%"}, {"measurement": "inhibition at 10 µM", "setting": "[5]; read-out: binding inhibition", "value": "> 50", "unit": "%"}, {"measurement": "inhibition at 10 µM", "setting": "[6]; read-out: binding inhibition", "value": "> 50", "unit": "%"}, {"measurement": "inhibition at 10 µM", "setting": "[7]; read-out: binding inhibition", "value": "> 50", "unit": "%"}, {"measurement": "inhibition at 10 µM", "setting": "[8]; read-out: binding inhibition", "value": "> 50", "unit": "%"}]}
